# Reference: patent US20230295133A1, “PROCESS FOR PREPARING A COMPOUND USEFUL TO TREAT MYCOSES” (PULMOCIDE LIMITED, priority 2014, published 2023)
# Columns and labels:
# [1] = test system: aspergillus fumigatus (ATCC 13073 [strain: NIH 5233]); test: Survival of severely immunosuppressed neutropenic infected mice, monotherapy and combination; assay type: in vivo, A/J mice; conditions: Example 1 0.4 mg/mL (in); Posaconazole 1 mg/kg (po); once daily days 1-6
# Protocol: On day 0, animals were infected intranasally with 35 µL of the spore suspension (1.67 × 10^8 spores/mL in physiological saline) of aspergillus fumigatus (ATCC 13073 [strain: NIH 5233]). Compound Example (I), prepared as a suspension in isotonic saline (0.4 mg/mL), was dosed once daily by an intra-nasal injection (35 µL/mouse) on days 1-6 after infection. Posaconazole (1 mg/kg) was given orally once daily on days 1-6 after infection. Body weight and survival were monitored daily up to day 7.
# [2] = test system: Chaectomium globosum ATCC44699; test: Fungus panel screening, CLSI broth microdilution; assay type: cell-based
# Protocol: Fungus panel screening was conducted by Eurofins Panlabs Inc. The MIC and MIC50 values of the test articles were determined following the guidelines of the Clinical and Laboratory Standards Institute, broth microdilution methods for yeast (CLSI M27-A2), (CLSI, 2002) and for filamentous fungi (CLSI M38-A), (CLSI, 2008).
# [3] = test system: aspergillus fumigatus (ATCC 13073 [strain: NIH 5233]); test: In vivo anti-fungal activity, prophylactic and therapeutic treatment of infected immunocompromised neutropenic mice; set-up: species or system A/J mice; conditions: prophylactic treatment (days 0, 1, 2 and 3); 0.4 mg/mL
# [4] = test system: Aspergillus fumigatus NCPF2010; test: Broth microdilution assay (modified EUCAST); assay type: cell-based; conditions: Aspergillus fumigatus, NCPF2010; broth microdilution assay, n = 3; read-out: MIC75 against Aspergillus fumigatus isolate NCPF2010
# Method in brief: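 Spores from 3-day Sabouraud cultures (working suspension 2 × 10^5 spores/mL) were added to an equal volume of RPMI-1640 (2 mM L-glutamine, 0.5% BSA, 2% glucose, 0.165 M MOPS, pH 7) containing compound, in quadruplicate. After 48 hr at 35 °C, OD530 gave percent inhibition. MIC50, MIC75 and MIC90 came from concentration-response curves.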
compound,measurement,setting,value
"CC[C@@H]([C@H](C)O)n1ncn(-c2ccc(N3CCN(c4ccc(OC[C@@H]5CO[C@@](Cn6cncn6)(c6ccc(F)cc6F)C5)cc4)CC3)cc2)c1=O [Posaconazole, reference compound]",Median survival,[1],6.5 days
same,No. of survivors on day 7,[1],0/6
same,Survivors on day 7 (%),[1],0%
same,MIC50,[2]; 50% inhibition by visual inspection (CLSI),0.13 µg/mL
same,MIC,"[2]; 100% inhibition by visual inspection (CLSI), read-out: MIC100",0.25 µg/mL
same,"% Inhibition versus Infected Controls, GM in BALF",[3],20%
same,"% Inhibition versus Infected Controls, GM in serum",[3],34%
same,"% Inhibition versus Infected Controls, Lung Fungal Load",[3],44%
same,MIC,[4],0.0153 µM
